How the values were obtained:
[1] = tested on: primary CD138+ myeloma cells; conditions: compared with Example 1; Trudel et al. ASH 2009; cited from earlier work
[2] = tested on: KMS-11; assay: Cell viability assay (MTS); assay type: cell-based; conditions: Homo sapiens, 72 hours, mean ± standard deviation
Protocol: (§1) Human multiple myeloma cell lines 8226, H929, JJN3, KMH11, KMS11, KMS18, LP1, MM1S, OPM2 and U266 were grown in Iscove modified Dulbecco's medium (IMDM). Human leukemia cell lines K562, OCI-AML2 and U937 were cultured in RPMI-1640 medium. Primary peripheral blood mononuclear cells were isolated from multiple myeloma patients by Ficoll density gradient centrifugation and bone marrow aspirates were obtained from multiple myeloma patients at the Princess Margaret Cancer Centre of the University Health Network (UHN; Toronto, ON, Canada). Primary cells were cultured in IMDM. The collection and use of human tissue for this study were approved by the UHN institutional ethics review board. All cell culture media were obtained from the Ontario Cancer Institute Tissue Culture Media Facility (Toronto, ON, Canada) and were supplemented with 10% fetal calf serum, […] (Hyclone, Logan, Utah). All cells were grown in a humidified incubator at 37° C. with 5% CO2.
(§2) Cellular viability was primarily assessed by 3-(4,5-dimethylthiazol-2-yl)-5-(3-carboxymethoxyphenyl)-2-(4-sulfophenyl)-2H-tetrazolium (MTS) assay according to the manufacturer's instructions (Promega; Madison, Wis.). Cells were first seeded at a density of 10,000 cells per well in tissue culture-treated 96-well plates. Two hours after seeding, cells were treated with compounds for 72 hours at concentrations as indicated. As a control, cells were treated with DMSO alone in every assay plate. Following treatment and the MTS assay, cell viability was independently confirmed by reading the optical density (O.D.) at 490 nm and by exclusion of trypan blue stain (Invitrogen; Burlington, ON, Canada). The viability of primary mononuclear cells was determined by staining with Annexin V.
(§3) Table 9 summarizes data obtained for representative compounds of Formula I for cell viability and CT-L proteasome activity using OCI-AML-2 and KMS-11 cell lines.

[3] = tested on: OCI-AML-2; assay: Cell viability assay (MTS); assay type: cell-based; conditions: Homo sapiens, OCI-AML2, 72 hours, mean ± standard deviation
Protocol: as §1, §2, §3

[4] = tested on: chymotrypsin-like (CT-L) proteasome activity, OCI-AML-2; assay: Proteasome enzymatic activity (tumor cell lysates); assay type: biochemical, human; conditions: OCI-AML-2 cell lysate; mean ± standard deviation
Protocol: (§4) Cells were harvested by centrifugation at 1,200 rpm at room temperature. Cell pellets were washed with PBS and lysed with assay lysis buffer (50 mM HEPES (N-2-hydroxyethylpiperazine-N′-2-ethanesulfonic acid), pH 7.5; 150 mM NaCl; 1% Triton X-100; 2 mM ATP). Cell lysates were incubated on ice for 30 minutes, mixed by vortex every 5 minutes, and then centrifuged at 12,000 g for 10 minutes. The supernatant was transferred to a 96-well plate. For each assay, 10 μg of total protein were incubated for 1 hour at 37° C. with increasing concentrations (1 nM to 10 μM) of test compound diluted in assay buffer (50 mM Tris-HCl (tris(hydroxymethyl)aminomethane-HCl), pH 7.5; 150 mM NaCl). DMSO alone was used as a control in every assay plate. After incubation, a specific fluorogenic proteasome substrate was added to each assay reaction at a final concentration of 40 μM in a total volume of 100 μL. N-Succinyl-Leu-Leu-Val-Tyr-7-amino-4-methylcoumarin (Suc-Leu-Leu-Val-Tyr-AMC) was used for measuring chymotrypsin-like (CT-L) activity, t-butoxycarbonyl-Leu-Arg-Arg-7-amino-4-methylcoumarin (Boc-Leu-Arg-Arg-AMC) for trypsin-like (T-L) activity, and benzyloxycarbonyl-L-leucyl-L-leucyl-L-glutamyl-7-amino-4-methylcoumarin (Z-Leu-Leu-Glu-AMC) for caspase-like (C-L) activity. The excitation wavelength was set at 360 nm and the fluorescence emission wavelength of AMC was detected at 460 nm. The fluorescence of free AMC released during the enzymatic reaction was measured with a SpectraMax M5 fluorescent spectrophotometric plate reader (Molecular Devices, Sunnyvale, Calif.). AMC release rate was measured at 37° C. in a kinetic mode, recording every 5 minutes for 30 minutes. Experiments were performed in triplicate and repeated at least twice.
as §3

[5] = tested on: chymotrypsin-like (CT-L) proteasome activity, KMS-11; assay: Proteasome enzymatic activity (tumor cell lysates); assay type: biochemical, human; conditions: KMS-11 cell lysate; mean ± standard deviation
Protocol: as §4, §3

| SMILES | therapeutic index between CD138+ and CD-138− in patient samples [1] | IC50 [2] | IC50 [3] | IC50 [4] | IC50 [5] |
| --- | --- | --- | --- | --- | --- |
| CC(C)C[C@H](NC(=O)[C@H](CCc1ccccc1)NC(=O)CN1CCOCC1)C(=O)N[C@@H](Cc1ccccc1)C(=O)N[C@@H](CC(C)C)C(=O)[C@@]1(C)CO1 [carfilzomib] | much narrower therapeutic index |  |  |  |  |
| CC(C)C[C@H](NC(=O)[C@H](COC(F)F)NC(=O)CN1CCOCC1)C(=O)N[C@@H](Cc1ccccc1)C(=O)[C@@]1(C)CO1 [Example 27, (2S)-N-[(1S)-1-benzyl-2-[(2R)-2-methyloxiran-2-yl]-2-oxo-ethyl]-2-[[(2S)-3-(difluoromethoxy)-2-[(2-morpholinoacetyl)amino]propanoyl]amino]-4-methylpentanamide] |  | 0.25 ± 0.0259 µM | 0.401 ± 0.275 µM | 0.6 ± 0.0575 µM | 0.743 ± 0.0837 µM |
| CC(C)C[C@H](NC(=O)[C@H](COC(F)F)NC(=O)CN1CCOCC1)C(=O)N[C@@H](CC(C)C)C(=O)[C@@]1(C)CO1 [Example 28, (2S)-2-[[(2S)-3-(difluoromethoxy)-2-[(2-morpholino-acetyl)amino]propa-noyl]amino]-4-methyl-N-[(1S)-3-methyl-1-[(2R)-2-methyloxirane-2-carbonyl]butyl]pentanamide] |  | 0.1 ± 0.0187 µM | 0.132 ± 0.0876 µM | 0.556 ± 0.123 µM | 0.575 ± 0.0627 µM |
| CC(C)C[C@H](NC(=O)[C@H](COC(F)F)NC(=O)[C@H](COC(F)F)NC(=O)CN1CCOCC1)C(=O)[C@@]1(C)CO1 [Example 33, (2S)-3-(difluoromethoxy)-N-[(1S)-1-(difluoromethoxymethyl)-2-[[(1S)-3-methyl-1-[(2R)-2-methyloxirane-2-carbonyl]butyl]amino]-2-oxo-ethyl]-2-[(2-morpholinoacetyl)amino]propanamide] |  | 0.0467 ± 0.00989 µM | 0.14 ± 0.0535 µM | 0.599 ± 0.0777 µM | 0.704 ± 0.173 µM |
